Test results published in PMC9917023, “Stabilization of Monomeric Tau Protein by All D-Enantiomeric Peptide Ligands as Therapeutic Strategy for Alzheimer’s Disease and Other Tauopathies” (International Journal of Molecular Sciences, 2023).
Non-standard residues stand in square brackets, D forms with d. Residues, ends and D or L forms follow the SMILES beside them.

How the values were obtained:
[1] = system: SH-SY5Y cells; assay: Cell-viability assay (MTT); format: cell-based, human; details: 0.2, 1 and 5 µM, 24 h, 37 °C
Protocol: (§1) Human […] SH-SY5Y cells and rat pheochromocytoma PC12 cells were cultivated in RPMI medium with 10% fetal bovine serum and 5% horse serum. On a collagen-coated 96-well plate (Gibco, Life Technology, Carlsbad, CA, USA), 10.000 cells were seeded per well. The plate was incubated for 24 h at 37 °C and 5% CO2. TF2D-5 and TF2D-5a were added to the cells at concentrations of 0.2 µM, 1 µM, and 5 µM, respectively. As a positive control, 0.1% Trion X-100 was used. A medium was used as a negative control. The samples were incubated for a further 24 h at 37 °C and 5% CO2. Cell viability was determined by using the Cell Proliferation Kit 1 (MTT) (Roche, Basel, Switzerland) according to the instruction manual. The absorbance of generated formazan products was measured using a CLARIOstar plate reader (BMG, Offenburg, Germany). Absorption at 570 nm was measured and referenced against absorbance at 660 nm.
(§2) Figure S3. Peptide toxicity assay for different concentrations of TF2D -5 and TF2D-5a.
(§3) For this assay the compounds TF2D -5 and TF2D-5a were incubated on SHSY5Y and PC12 cells for 24 h at 37 °C and 5 % CO2. The “Cell Proliferation Kit 1” from Roche was used for the MTT assay. RPMI with 10 % HS and 5 % FBS was used as cell medium. As […] 0.1 % Triton X100 was used. For both assays no negative effect on the cell viability could be observed by addition of both compounds. […]

[2] = Stability in simulated intestinal fluid; format: in vitro ADME
Protocol: (§4) Figure 12 Stability assay of TF2D-5 and TF2D-5a using different simulated human body fluids. (A) Stability of compounds in simulated gastric fluid (SGF). The simulated gastric fluid consisted of 2 mg/mL sodium chloride, 3.2 mg/mL pepsin, and 80 mM HCl; pH 1. (B) Stability of TF2D-5 and TF2D-5a in simulated intestinal fluid (SIF). Simulated intestinal fluid consisted of 6.8 mg/mL potassium dihydrogen phosphate, 10 mg/mL pancreas powder, and 15.4 mM NaOH; pH 6.8. (C) Stability of TF2D-5 and TF2D-5a in human blood plasma. K3EDTA human blood plasma was purchased from BioTrend. (D) Stability of TF2D-5 and TF2D-5a in human liver microsomes. Human liver microsomes consisted of 6 mg/mL protein (containing Cytochrome P450 (CYP) enzymes), 75 mM sucrose, 1.3 mM NADPH, 3.3 mM D-glucose-6-phosphat, 0.2 u/mL D-glucose-6-phosphat dehydrogenase, 3.3 mM magnesium chloride, and 100 mM potassium phosphate; pH 7.4.
(§5) The stability of the compounds was tested according to Elfgen et al. and Schemmert et al. Exceptions included the extraction of plasma, simulated gastric fluid (SGF), and simulated intestinal fluid (SIF) samples. These were obtained by the addition of 12.5 µL 0.35 M ZnSO4, followed by vortexing, the addition of 12.5 µL 0.5 M HCl, additional vortexing, and centrifugation at 14,000× g for 10 min at 4 °C.

[3] = system: brain endothelial cells (RBMVEC) and astroglial cells (CTX TNA2)
Protocol: Each peptide was tested at different time points in triplicate next to an unseeded negative control (“Empty”) and quantitatively analyzed via HPLC using a calibration curve to determine the concentration of the peptide in the receiving chamber at each point in time (Figure 11). From these values, the volume of each chamber, and the respective time, a Papp permeability coefficient in cm²/s was calculated for each substance to represent its ability to cross the in vitro blood–brain barrier model.
An amount equaling 1 mg/mL TF2D-5 (A) or TF2D-5a (B) was added to an insert that was seeded and covered with endothelial and astroglial cells, representing the in vitro blood–brain barrier, or an empty insert serving as a control. After different time points, samples were taken and analyzed by quantitative HPLC analysis. Data given as mean ± SD out of three independent replicates.
Brain endothelial cells from rats and astroglial cells were used to cultivate the different sides of the porous membrane.
Brain endothelial cells from rats (RBMVEC, Cell Applications Inc., R840-05a, San Diego, CA, USA) were cultivated in Complete Classic medium (Cell Systems, Kirkland, WA, USA, 4Z0-500), and rat astroglial cells (CTX TNA2, ATCC, CRL-2006) were cultivated in Complete Classic medium (Cell Systems, Kirkland, WA, USA, 4Z0-500). The cells were allowed to grow in a humidified incubator with 5% CO2 at 37 °C and a maximum of 20 passages. The cells were passaged every 3 to 5 days, according to their confluence.
In order to set up the in vitro BBB model, the astroglial cells were seeded at a density of 600.000 cells/cm² on the outer (basolateral, “brain”) side of an insert with a porous membrane (Corning Transwell polycarbonate membrane cell culture inserts, CLS3415, 3 µM pore size) and allowed to grow/adhere overnight in the Complete Classic medium. The next day, brain endothelial cells were seeded at a density of 600.000 cells/cm² on the inner side (apical, “blood”) of the corresponding membrane. The seeded inserts were then cultivated to grow to full confluence over a period of 5 to 7 days, with the medium renewed daily. […] Prior to this, TEER (transendothelial electrical resistance values) were measured in each well to ensure the integrity of the in vitro BBB. At 0, 30, 60, 90, 120, 150, 180, and 240 min, 50 µL of the medium out of the outer chamber was taken and analyzed by HPLC. This 50 µL would then be replaced by the same amount of fresh serum-free medium to keep the fluid levels equal across both chambers. This slight dilution was factored into the following calculations. Furthermore, a dilution series of each reagent was analyzed alongside the samples as a calibration to quantify the analysis. […] The Papp values were calculated as follows (higher is better): Papp =(V/A∗C)∗(Dc/Dt)

[4] = Stability in human liver microsomes; format: in vitro ADME; details: 6 mg/mL protein, 1.3 mM NADPH with regenerating system, pH 7.4, after 24 h, read-out: still unmetabolized in human liver microsomes
Protocol: as §4, §5

[5] = target: T1, full-length tau 441 (Homo sapiens, UniProt P10636); assay: Thioflavin-T assay of heparin-induced tau aggregation; format: biochemical
T1 construct: The gene for the human full-length tau was prepared on a plasmid called pET28a(+)-tau2N4R; made in house; host or cells: E. coli pRare
T1 sequence (P10636 1-441 isoform P10636-8): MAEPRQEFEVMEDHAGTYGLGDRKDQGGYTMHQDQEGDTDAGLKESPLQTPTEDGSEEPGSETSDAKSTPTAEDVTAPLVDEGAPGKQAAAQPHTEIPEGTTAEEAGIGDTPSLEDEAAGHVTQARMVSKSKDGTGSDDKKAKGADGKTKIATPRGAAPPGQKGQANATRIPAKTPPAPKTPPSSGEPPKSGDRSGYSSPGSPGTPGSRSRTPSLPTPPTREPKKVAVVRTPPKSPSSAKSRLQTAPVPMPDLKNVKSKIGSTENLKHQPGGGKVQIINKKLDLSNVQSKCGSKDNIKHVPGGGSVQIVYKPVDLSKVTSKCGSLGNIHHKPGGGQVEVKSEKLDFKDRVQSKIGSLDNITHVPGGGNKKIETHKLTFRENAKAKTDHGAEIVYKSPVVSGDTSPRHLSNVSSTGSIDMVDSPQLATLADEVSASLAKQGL
Protocol: Figure 5 Tau aggregation-influencing effect of TF2D-5 and TF2D-5a. The ThT assay was performed in a FLUOstar plate reader from BMG Labtech. Twenty-five micrometers recombinant full-length tau 441 was mixed with 12.5 µM heparin, 200 µM DTT, 0.05% NaN3, and […]. Compounds were added with a concentration of 25 µM. The total volume was adjusted to 100 µL with PBS pH 7.4, and the plate was measured with bottom optics. The experiment ran at 37 °C with measurement intervals of 20 min. Before each measurement, the plate was shaken for 15 s at 300 rpm. A 3 mm borosilicate bead was added to each well. (A) The effect of TF2D-5 when added at different time points during the ThT assay. When added at the start of the experiment no aggregation can be observed for the duration of the experiment (green). […] (B) The addition of TF2D-5a to the sample inhibits tau aggregation during the complete experiment which equals a lag time increase of at least 400% (blue). […] CP1 was obtained by randomizing the amino acid residue composition of TF2D-5.
To investigate whether TF2D-5 and TF2D-5a induce an extension of the lag time of tau aggregation, we performed a ThT experiment with sub-stoichiometric D-peptide concentrations. For this, we used tau that was produced according to the protocol in the Section 4. Twenty-five micrometers of full-length tau was incubated with 6.25 µM, 12.5 µM 25 µM, 50 µM, and 100 µM of D-peptides. As expected, we observed an increase in the lag time of the full-length tau aggregation with the increasing D-peptide concentrations. […] The addition of 6.25 µM of TF2D-5a shifted the lag time by about 60 h (a 200% increase).
ThT assays to characterize the aggregation inhibition properties of the selected compounds were conducted as follows. All measurements were performed in a FLUOstar plate reader (BMG, Offenburg, Germany). Recombinant full-length tau 441 (25 µM) was mixed with heparin (12.5 µM), DTT (200 µM), NaN3 (0.05%), and ThT (20 µM). […] The compounds were added with a maximum concentration of 25 µM. The total volume was adjusted to 100 µL with PBS pH 7.4, and the plate (Corning, New York, NY, USA) was measured with bottom optics. A 3 mm borosilicate bead (Hilgenberg GmbH, Malsfeld, Germany) was added to each well. The experiment ran at 37 °C, with measurement intervals of 20 min. Before each measurement, the plate was shaken for 15 s at 300 rpm.

[6] = Stability in simulated gastric fluid; format: in vitro ADME; details: SGF: 2 mg/mL NaCl, 3.2 mg/mL pepsin, 80 mM HCl, pH 1; 8 h
Protocol: as §4, §5

[7] = Stability in human blood plasma; format: in vitro ADME; details: K3EDTA human blood plasma, after 48 h; read-out: still detectable in human blood plasma
Protocol: as §4, §5

[8] = system: PC12 cells; assay: Cell-viability assay (MTT); format: cell-based, rat; details: 0.2, 1 and 5 µM, 24 h, 37 °C
Protocol: as §1, §2, §3

[9] = 6.25 µM D-peptide, 25 µM full-length tau

| stability in simulated intestinal fluid ([2]; SIF: 6.8 mg/mL KH2PO4, 10 mg/mL pancreas powder, 15.4 mM NaOH, pH 6.8) | Papp permeability coefficient [3] | remaining at 24 h [4] | lag time increase [5, 9] | lag time increase ([5]; 12.5 µM D-peptide, 25 µM full-length tau) | stability in simulated gastric fluid [6] | remaining at 48 h [7] | metabolised at 8 h ([2]; simulated intestinal fluid with pancreas powder, SIF pH 6.8, 10 mg/mL pancreas powder, after about 8 h, read-out: decrease of level in simulated intestinal fluid) | lag time increase ([5]; 25 µM compound, 25 µM tau 441, added at start) | Structure (SMILES) | toxicity (cell viability, MTT) [1] | toxicity (cell viability, MTT) [8] |
| --- | --- | --- | --- | --- | --- | --- | --- | --- | --- | --- | --- |
| stable in simulated intestinal fluid | 3.6e-06 cm/s | 3.7% | 100% | 200% | very stable in simulated gastric fluid | 97.4% | – | – | CC[C@@H](C)[C@@H](NC(=O)[C@@H](Cc1c[nH]cn1)NC(=O)CNC(=O)CNC(=O)[C@H]1CCCN1C(=O)[C@H](NC(=O)[C@@H](CCCCN)NC(=O)[C@@H](Cc1ccccc1)NC(=O)[C@@H](CC(C)C)NC(=O)[C@H](NC(=O)[C@@H](CCC(N)=O)NC(=O)[C@@H](Cc1ccc(O)cc1)NC(=O)CNC(=O)CNC(=O)[C@H](N)CC(=O)O)[C@H](C)CC)[C@H](C)CC)C(=O)N[C@H](Cc1c[nH]cn1)C(N)=O [TF2D-5] (H-[dD]GG[dY][dQ][dI][dL][dF][dK][dI][dP]GG[dH][dI][dH]-NH2) | not toxic | not toxic |
| – | 4.8e-05 cm/s | 13.2% | 200% | – | very stable in simulated gastric fluid | 86.5% | 27.8% | at least 400% | CC[C@@H](C)[C@@H](NC(=O)[C@@H](Cc1c[nH]cn1)NC(=O)CNC(=O)CNC(=O)[C@H]1CCCN1C(=O)[C@H](NC(=O)[C@@H](CCCCN)NC(=O)[C@@H](Cc1ccccc1)NC(=O)[C@@H](CC(C)C)NC(=O)[C@H](NC(=O)[C@@H](CCC(N)=O)NC(=O)[C@@H](Cc1ccc(O)cc1)NC(=O)CNC(=O)CNC(=O)[C@H](N)CC(=O)O)[C@H](C)CC)[C@H](C)CC)C(=O)N[C@H](Cc1c[nH]cn1)C(=O)N[C@H](CCCNC(=N)N)C(=O)N[C@H](CCCNC(=N)N)C(=O)N[C@H](CCCNC(=N)N)C(=O)N[C@H](CCCNC(=N)N)C(=O)N[C@H](CCCNC(=N)N)C(N)=O [TF2D-5a] (H-[dD]GG[dY][dQ][dI][dL][dF][dK][dI][dP]GG[dH][dI][dH][dR][dR][dR][dR][dR]-NH2) | not toxic | not toxic |
